Test results: patent US11180462B2, “Microbiocidal oxadiazole derivatives” (SYNGENTA PARTICIPATIONS AG, priority 2015, dated 2021)

Assays:
[1] = test system: Puccinia recondita f. Sp. Tritici; assay: Fungicidal activity against Puccinia recondita f. sp. tritici / wheat / leaf disc preventative (brown rust); format: in vivo; conditions: foliar, 200 ppm in the applied formulation, wheat leaf segments, preventative, compared to untreated control leaf disks, read-out: disease control
How it was run: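 Percent disease control relative to untreated check segments is scored once disease develops, 7 to 9 days after application. Wheat cv. Kanzler segments receive compound spray (200 ppm in formulation) one day before spore inoculation, then sit at 19° C. and 75% rh under 12 h light/12 h dark.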

[2] = test system: Puccinia recondita f. Sp. Tritici; assay: Fungicidal activity against Puccinia recondita f. sp. tritici / wheat / leaf disc curative (brown rust); format: in vivo; conditions: foliar, 24 h, 200 ppm in the applied formulation, wheat leaf segments, curative (applied 1 day after inoculation), compared to untreated control leaf disks, read-out: disease control
How it was run: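 Curative leaf-segment test: compound diluted in water applied 1 day after spore inoculation of cv. Kanzler wheat segments on agar. Conditions 19° C, 75% RH, 12 h/12 h light cycle. Read-out: % disease control relative to untreated check, 6 to 8 days after application.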

[3] = test system: Glomerella lagenarium (Colletotrichum lagenarium); assay: Fungicidal activity against Glomerella lagenarium (Colletotrichum lagenarium) liquid culture / cucumber / preventative (anthracnose); format: cell-based; conditions: Colletotrichum orbiculare; 20 ppm in the applied formulation; liquid culture (PDB), growth inhibition measured photometrically after 3 to 4 days; compared to untreated control; read-out: disease control
How it was run: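 Percent activity against the untreated check was derived from photometric growth measurements made 2 to 7 days after conidia in potato dextrose broth were combined with compound at 20 ppm. Cultures were kept dark at 24 °C and 96% humidity.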

[4] = test system: Phakopsora Pachyrhizi; assay: Fungicidal activity against Phakopsora pachyrhizi / soybean / leaf disc preventative (Asian soybean rust); format: in vivo; conditions: foliar, 200 ppm in the applied formulation, soybean leaf disks, compared to untreated control leaf disks, read-out: disease control
How it was run: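 Scored 12 to 14 days post-application as percent control relative to untreated check discs, rust spores were sprayed under the disc one day after compound treatment. Incubation: 20°C, 75% rh, first 24–36 h in darkness, then 12 h daily light; discs kept on water agar.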

CC(C)C(=O)N(Cc1ccc(-c2noc(C(F)(F)F)n2)cc1)C(C)C [Compound 1.670, N-isopropyl-2-methyl-N-[[4-[5-(trifluoromethyl)-1,2,4-oxadiazol-3-yl]phenyl]methyl]-propanamide]
≥ 80%: pest or weed control at 200 ppm [1] | pest or weed control at 200 ppm [2] | inhibition of growth at 20 ppm [3] | pest or weed control at 200 ppm [4]

CC(C)N(Cc1ccc(-c2noc(C(F)(F)F)n2)cc1)C(=O)C1CC1(F)F (stereo not drawn) [Compound 1.671, 2,2-difluoro-N-isopropyl-N-[[4-[5-(trifluoromethyl)-1,2,4-oxadiazol-3-yl]phenyl]methyl]-cyclopropane-carboxamide]
≥ 80%: pest or weed control at 200 ppm [1] | pest or weed control at 200 ppm [2] | inhibition of growth at 20 ppm [3] | pest or weed control at 200 ppm [4]

CC(C)N(Cc1ccc(-c2noc(C(F)(F)F)n2)cc1)C(=O)C1CCOC1 (stereo not drawn) [Compound 1.673, N-isopropyl-N-[[4-[5-(trifluoromethyl)-1,2,4-oxadiazol-3-yl]phenyl]methyl]-tetrahydrofuran-3-carboxamide]
≥ 80%: pest or weed control at 200 ppm [1] | pest or weed control at 200 ppm [2] | inhibition of growth at 20 ppm [3] | pest or weed control at 200 ppm [4]

COCCC(=O)N(Cc1ccc(-c2noc(C(F)(F)F)n2)cc1)C(C)C [Compound 1.674, N-isopropyl-3-methoxy-N-[[4-[5-(trifluoromethyl)-1,2,4-oxadiazol-3-yl]phenyl]methyl]-propanamide]
≥ 80%: pest or weed control at 200 ppm [1] | pest or weed control at 200 ppm [2] | inhibition of growth at 20 ppm [3] | pest or weed control at 200 ppm [4]

CC(C)N(Cc1ccc(-c2noc(C(F)(F)F)n2)cc1)C(=O)C1CCC1 [Compound 1.675, N-isopropyl-N-[[4-[5-(trifluoromethyl)-1,2,4-oxadiazol-3-yl]phenyl]methyl]-cyclobutane-carboxamide]
≥ 80%: pest or weed control at 200 ppm [1] | pest or weed control at 200 ppm [2] | inhibition of growth at 20 ppm [3] | pest or weed control at 200 ppm [4]

CC1CC1C(=O)N(Cc1ccc(-c2noc(C(F)(F)F)n2)cc1)C(C)C (stereo not drawn) [Compound 1.676, N-isopropyl-2-methyl-N-[[4-[5-(trifluoromethyl)-1,2,4-oxadiazol-3-yl]phenyl]methyl]-cyclopropane-carboxamide]
≥ 80%: pest or weed control at 200 ppm [1] | pest or weed control at 200 ppm [2] | inhibition of growth at 20 ppm [3] | pest or weed control at 200 ppm [4]

CC(C)N(Cc1ccc(-c2noc(C(F)(F)F)n2)cc1)C(=O)C1(C)CC1 [Compound 1.677, N-isopropyl-1-methyl-N-[[4-[5-(trifluoromethyl)-1,2,4-oxadiazol-3-yl]phenyl]methyl]-cyclopropane-carboxamide]
≥ 80%: pest or weed control at 200 ppm [1] | pest or weed control at 200 ppm [2] | inhibition of growth at 20 ppm [3] | pest or weed control at 200 ppm [4]

CCC(C)C(=O)N(Cc1ccc(-c2noc(C(F)(F)F)n2)cc1)C(C)C (stereo not drawn) [Compound 1.678, N-isopropyl-2-methyl-N-[[4-[5-(trifluoromethyl)-1,2,4-oxadiazol-3-yl]phenyl]methyl]-butanamide]
≥ 80%: pest or weed control at 200 ppm [1] | pest or weed control at 200 ppm [2] | inhibition of growth at 20 ppm [3] | pest or weed control at 200 ppm [4]

CC(C)N(Cc1ccc(-c2noc(C(F)(F)F)n2)cc1)C(=O)C1(C)COC1 [Compound 1.679, N-isopropyl-3-methyl-N-[[4-[5-(trifluoromethyl)-1,2,4-oxadiazol-3-yl]phenyl]methyl]-oxetane-3-carboxamide]
≥ 80%: pest or weed control at 200 ppm [1] | pest or weed control at 200 ppm [2] | inhibition of growth at 20 ppm [3] | pest or weed control at 200 ppm [4]

CCC(COC)C(=O)N(Cc1ccc(-c2noc(C(F)(F)F)n2)cc1)C(C)C (stereo not drawn) [Compound 1.680, N-isopropyl-2-(methoxymethyl)-N-[[4-[5-(trifluoromethyl)-1,2,4-oxadiazol-3-yl]phenyl]methyl]-butanamide]
≥ 80%: pest or weed control at 200 ppm [1] | pest or weed control at 200 ppm [2] | inhibition of growth at 20 ppm [3] | pest or weed control at 200 ppm [4]

COCCCC(=O)N(Cc1ccc(-c2noc(C(F)(F)F)n2)cc1)C(C)C [Compound 1.681, N-isopropyl-4-methoxy-N-[[4-[5-(trifluoromethyl)-1,2,4-oxadiazol-3-yl]phenyl]methyl]-butanamide]
≥ 80%: pest or weed control at 200 ppm [1] | pest or weed control at 200 ppm [2] | inhibition of growth at 20 ppm [3] | pest or weed control at 200 ppm [4]

CC(C)N(Cc1ccc(-c2noc(C(F)(F)F)n2)cc1)C(=O)C1CCCO1 (stereo not drawn) [Compound 1.682, N-isopropyl-N-[[4-[5-(trifluoromethyl)-1,2,4-oxadiazol-3-yl]phenyl]methyl]-tetrahydrofuran-2-carboxamide]
≥ 80%: pest or weed control at 200 ppm [1] | pest or weed control at 200 ppm [2] | inhibition of growth at 20 ppm [3] | pest or weed control at 200 ppm [4]

CC(C)N(Cc1ccc(-c2noc(C(F)(F)F)n2)cc1)C(=O)CC#N [Compound 1.683, 2-cyano-N-isopropyl-N-[[4-[5-(trifluoromethyl)-1,2,4-oxadiazol-3-yl]phenyl]methyl]-acetamide]
≥ 80%: pest or weed control at 200 ppm [1] | pest or weed control at 200 ppm [2] | inhibition of growth at 20 ppm [3] | pest or weed control at 200 ppm [4]

CC(C)N(Cc1ccc(-c2noc(C(F)(F)F)n2)cc1)C(=O)C1(C#N)CC1 [Compound 1.684, 1 cyano-N-isopropyl-N-[[4-[5-(trifluoromethyl)-1,2,4-oxadiazol-3-yl]phenyl]methyl]-cyclopropane-carboxamide]
≥ 80%: pest or weed control at 200 ppm [1] | pest or weed control at 200 ppm [2] | inhibition of growth at 20 ppm [3] | pest or weed control at 200 ppm [4]

COC(C)C(=O)N(Cc1ccc(-c2noc(C(F)(F)F)n2)cc1)C(C)C (stereo not drawn) [Compound 1.685, N-isopropyl-2-methoxy-N-[[4-[5-(trifluoromethyl)-1,2,4-oxadiazol-3-yl]phenyl]methyl]-propanamide]
≥ 80%: pest or weed control at 200 ppm [1] | pest or weed control at 200 ppm [2] | inhibition of growth at 20 ppm [3] | pest or weed control at 200 ppm [4]

CC(C)N(Cc1ccc(-c2noc(C(F)(F)F)n2)cc1)C(=O)CC(F)(F)F [Compound 1.686, 3,3,3-trifluoro-N-isopropyl-N-[[4-[5-(trifluoromethyl)-1,2,4-oxadiazol-3-yl]phenyl]methyl]-propanamide]
≥ 80%: pest or weed control at 200 ppm [1] | pest or weed control at 200 ppm [2] | inhibition of growth at 20 ppm [3] | pest or weed control at 200 ppm [4]

CC(=O)N(Cc1ccc(-c2noc(C(F)(F)F)n2)cc1)C(C)C [Compound 1.687, N-isopropyl-N-[[4-[5-(trifluoromethyl)-1,2,4-oxadiazol-3-yl]phenyl]methyl]-acetamide]
≥ 80%: pest or weed control at 200 ppm [1] | pest or weed control at 200 ppm [2] | inhibition of growth at 20 ppm [3] | pest or weed control at 200 ppm [4]

CC(C)N(Cc1ccc(-c2noc(C(F)(F)F)n2)cc1)C(=O)CC1CC1 [Compound 1.688, 2-cycloopropyl-N-isopropyl-N-[[4-[5-(trifluoromethyl)-1,2,4-oxadiazol-3-yl]phenyl]methyl]-acetamide]
≥ 80%: pest or weed control at 200 ppm [1] | pest or weed control at 200 ppm [2] | inhibition of growth at 20 ppm [3] | pest or weed control at 200 ppm [4]
